Structures are written as SMILES.

Experiment [1] concerns the target T1, Hexokinase 2 (Homo sapiens, UniProt P52789).
T1 construct: gene HK2
T1 sequence (P52789 1-917): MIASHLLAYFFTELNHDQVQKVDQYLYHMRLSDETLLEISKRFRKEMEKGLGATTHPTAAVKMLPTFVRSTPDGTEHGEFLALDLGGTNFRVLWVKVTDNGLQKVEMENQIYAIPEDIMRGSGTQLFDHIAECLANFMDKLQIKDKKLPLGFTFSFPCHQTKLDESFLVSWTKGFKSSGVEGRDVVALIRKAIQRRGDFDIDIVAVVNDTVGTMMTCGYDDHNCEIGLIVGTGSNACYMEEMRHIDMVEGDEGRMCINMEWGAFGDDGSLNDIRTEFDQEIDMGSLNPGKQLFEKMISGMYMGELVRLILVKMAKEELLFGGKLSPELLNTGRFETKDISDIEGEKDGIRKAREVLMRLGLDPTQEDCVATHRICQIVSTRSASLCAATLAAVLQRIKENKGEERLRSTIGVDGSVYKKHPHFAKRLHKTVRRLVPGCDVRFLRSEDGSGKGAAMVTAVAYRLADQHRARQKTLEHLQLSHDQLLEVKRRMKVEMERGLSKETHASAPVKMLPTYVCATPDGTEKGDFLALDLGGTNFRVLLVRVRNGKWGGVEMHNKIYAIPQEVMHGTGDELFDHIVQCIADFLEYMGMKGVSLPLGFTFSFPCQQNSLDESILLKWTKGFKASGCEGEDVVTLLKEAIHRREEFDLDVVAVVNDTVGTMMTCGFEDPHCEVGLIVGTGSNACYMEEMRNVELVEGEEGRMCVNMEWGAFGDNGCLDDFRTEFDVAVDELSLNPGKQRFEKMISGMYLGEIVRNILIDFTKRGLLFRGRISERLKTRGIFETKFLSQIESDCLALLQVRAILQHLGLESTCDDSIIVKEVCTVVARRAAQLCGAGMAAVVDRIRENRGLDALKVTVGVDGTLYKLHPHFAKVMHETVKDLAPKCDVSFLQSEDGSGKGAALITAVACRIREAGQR
Kind of experiment: in vitro HK2 Inhibitor Screening Kit (G6PDH-coupled colorimetric), […], positive control. It is filed as biochemical.

In experiment [2] the target is T2, Hexokinase 2 (H6-hHK2) (Homo sapiens, UniProt P52789).
T2 construct: gene HK2; N-terminal His6-tagged human HK2, aa 17-917
T2 sequence (P52789 17-917): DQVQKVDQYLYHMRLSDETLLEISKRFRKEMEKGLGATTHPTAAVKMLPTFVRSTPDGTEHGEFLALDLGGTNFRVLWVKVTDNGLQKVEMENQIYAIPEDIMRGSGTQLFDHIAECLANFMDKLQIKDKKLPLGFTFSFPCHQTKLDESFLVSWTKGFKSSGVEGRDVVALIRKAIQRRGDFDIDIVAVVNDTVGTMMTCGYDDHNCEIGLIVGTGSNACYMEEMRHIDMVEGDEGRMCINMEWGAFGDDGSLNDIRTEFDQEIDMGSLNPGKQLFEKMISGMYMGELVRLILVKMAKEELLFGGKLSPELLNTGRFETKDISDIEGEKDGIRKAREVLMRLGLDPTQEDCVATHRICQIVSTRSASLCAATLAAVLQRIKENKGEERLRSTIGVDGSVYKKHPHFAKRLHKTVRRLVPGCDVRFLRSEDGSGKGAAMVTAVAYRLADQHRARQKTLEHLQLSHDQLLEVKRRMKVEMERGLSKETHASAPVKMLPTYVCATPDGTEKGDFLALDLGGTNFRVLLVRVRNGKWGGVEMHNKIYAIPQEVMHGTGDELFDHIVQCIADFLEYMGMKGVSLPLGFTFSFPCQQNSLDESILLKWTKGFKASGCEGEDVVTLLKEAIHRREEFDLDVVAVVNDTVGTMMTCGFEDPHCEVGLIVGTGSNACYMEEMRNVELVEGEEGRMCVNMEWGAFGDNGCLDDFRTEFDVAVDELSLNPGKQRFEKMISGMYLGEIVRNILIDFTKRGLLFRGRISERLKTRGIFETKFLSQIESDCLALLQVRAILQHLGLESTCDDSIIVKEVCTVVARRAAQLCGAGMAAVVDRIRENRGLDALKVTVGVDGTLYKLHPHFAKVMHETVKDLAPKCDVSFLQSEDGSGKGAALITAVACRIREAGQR
Kind of experiment: microscale thermophoresis (RED-Tris-NTA labelled His6-HK2); also inhibits isolated HK2 in kit assay. It is filed as binding. (In MST a laser heats a spot of the sample, and binding alters the fluorescence response.)

Experiment [3] concerns the target T2, Hexokinase 2 (H6-hHK2). The experiment in a line: microscale thermophoresis (RED-Tris-NTA labelled His6-HK2). It is filed as binding.

On to `OC[C@H]1OC(O)C[C@@H](O)[C@@H]1O` (stereo partly shown) [2DG, 2-deoxyglucose], for which the activity at 5 µM in experiment [1] was found to be 9.9 ± 0.5%.

As usually defined, the Kd is a measure of binding affinity in units of concentration. A high value points to a looser complex. On to `O=C(N/N=C/c1ccc(O)c(O)c1O)c1ccc([N+](=O)[O-])cc1` [2a, (E)-N′-(2,3,4-trihydroxybenzylidene)-4-nitrobenzohydrazide], for which, in experiment [2], the Kd was 8.83 to 11 µM.

As for `O=C(N/N=C/c1ccc(O)cc1O)c1ccc([N+](=O)[O-])cc1` [2b, (E)-N′-(2,4-dihydroxybenzylidene)-4-nitrobenzohydrazide], binding in experiment [3] was put at a Kd of 58.9 µM.

In experiment [1], `O=C(O)C(=O)CBr` [3BP, 3-bromopyruvate] came in with an activity at 5 µM of 2.5 ± 0.4%.

The values above are taken from article PMC8910004, “Hexokinase 2 Inhibition and Biological Effects of BNBZ and Its Derivatives: The Influence of the Number and Arrangement of Hydroxyl Groups” (International Journal of Molecular Sciences, 2022).
